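Compound exposure: 48 hours, 5 concentrations, 96-well plates. GI50 = concentration required for 50% inhibition of growth.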 The source made the active and inactive calls. Cut-off read from the data, not from the text of the source: active = GI50 up to about 1.1 µM and inactive = higher.
Key:
Experiment in all cases: NCI-60 cell line screen, 48 h
[1] = tested on: HOP-62
[2] = tested on: 786-0
[3] = tested on: UACC-257
[4] = tested on: SNB-75
[5] = tested on: OVCAR-4
[6] = tested on: UO-31
[7] = tested on: COLO 205
[8] = tested on: SF-539
[9] = tested on: RPMI-8226
[10] = tested on: A549
[11] = tested on: KM12
[12] = tested on: SK-MEL-28
[13] = tested on: IGROV-1
[14] = tested on: UACC-62
[15] = tested on: NCI-H460
[16] = tested on: RXF 393

Compound | GI50 [1] | GI50 [2] | GI50 [3] | GI50 [4] | GI50 [5] | GI50 [6] | GI50 [7] | GI50 [8] | GI50 [9] | GI50 [10] | GI50 [11] | GI50 [12] | GI50 [13] | GI50 [14] | GI50 [15] | GI50 [16]
CCN1c2ccccc2C(C(SC)S(=O)(=O)c2ccc(C)cc2)c2c1[nH]c(=O)n(C)c2=O (configuration not stated) | > 100 µM (inactive) | > 100 µM (inactive) | > 100 µM (inactive) | 23.7 µM (inactive) | > 100 µM (inactive) | > 100 µM (inactive) | > 100 µM (inactive) | > 100 µM (inactive) | > 100 µM (inactive) | > 100 µM (inactive) | > 100 µM (inactive) | > 100 µM (inactive) | > 100 µM (inactive) | > 100 µM (inactive) | – | –
COC(=O)C1CC(=O)CCC1c1ccccc1 (configuration not stated) | > 100 µM (inactive) | > 100 µM (inactive) | > 100 µM (inactive) | > 100 µM (inactive) | > 100 µM (inactive) | > 100 µM (inactive) | > 100 µM (inactive) | > 100 µM (inactive) | > 100 µM (inactive) | > 100 µM (inactive) | > 100 µM (inactive) | > 100 µM (inactive) | > 100 µM (inactive) | > 100 µM (inactive) | > 100 µM (inactive) | –
CSc1nc(SC)c2c(C#N)n[nH]c2n1 | > 100 µM (inactive) | > 100 µM (inactive) | > 100 µM (inactive) | 63.5 µM (inactive) | > 100 µM (inactive) | > 100 µM (inactive) | > 100 µM (inactive) | > 100 µM (inactive) | > 100 µM (inactive) | > 100 µM (inactive) | > 100 µM (inactive) | > 100 µM (inactive) | > 100 µM (inactive) | > 100 µM (inactive) | > 100 µM (inactive) | > 100 µM (inactive)
CN(C)CCS/C(=N\c1ccccc1)n1cccc1 | 25.7 µM (inactive) | > 100 µM (inactive) | 42.9 µM (inactive) | 27.6 µM (inactive) | > 100 µM (inactive) | 32.2 µM (inactive) | > 100 µM (inactive) | 66.5 µM (inactive) | > 100 µM (inactive) | > 100 µM (inactive) | 82.8 µM (inactive) | > 100 µM (inactive) | > 100 µM (inactive) | 82.8 µM (inactive) | > 100 µM (inactive) | 27.1 µM (inactive)
CC1(OCc2ccccc2)C(=O)N2C1NCC2(C)C (configuration not stated) | > 100 µM (inactive) | > 100 µM (inactive) | > 100 µM (inactive) | > 100 µM (inactive) | > 100 µM (inactive) | 86.5 µM (inactive) | > 100 µM (inactive) | > 100 µM (inactive) | > 100 µM (inactive) | > 100 µM (inactive) | – | > 100 µM (inactive) | > 100 µM (inactive) | > 100 µM (inactive) | > 100 µM (inactive) | > 100 µM (inactive)
Cc1c(-c2cc(-c3ccccc3)n[nH]c2=O)c2ccccc2n1C | > 100 µM (inactive) | > 100 µM (inactive) | > 100 µM (inactive) | > 100 µM (inactive) | > 100 µM (inactive) | > 100 µM (inactive) | > 100 µM (inactive) | > 100 µM (inactive) | 76.2 µM (inactive) | > 100 µM (inactive) | > 100 µM (inactive) | > 100 µM (inactive) | > 100 µM (inactive) | > 100 µM (inactive) | > 100 µM (inactive) | > 61.7 µM (inactive)
Cc1cc(N(CCC#N)CCC#N)ccc1/C=C\C(=O)Nc1ccccc1 | 57 µM (inactive) | > 100 µM (inactive) | > 100 µM (inactive) | > 100 µM (inactive) | 62.4 µM (inactive) | 33.5 µM (inactive) | > 100 µM (inactive) | 76.7 µM (inactive) | > 100 µM (inactive) | > 100 µM (inactive) | 97.5 µM (inactive) | > 100 µM (inactive) | > 100 µM (inactive) | 0.931 µM (active) | 71.3 µM (inactive) | –
CCOC(=O)C1=C(C)Nc2ccccc2S1 | > 100 µM (inactive) | > 100 µM (inactive) | > 100 µM (inactive) | > 100 µM (inactive) | > 100 µM (inactive) | > 100 µM (inactive) | 77.8 µM (inactive) | > 100 µM (inactive) | 48.3 µM (inactive) | > 100 µM (inactive) | > 100 µM (inactive) | > 100 µM (inactive) | > 100 µM (inactive) | 3.21 µM (inactive) | > 100 µM (inactive) | 51.9 µM (inactive)
Cn1cnc(CCc2ccccc2)n1 | > 100 µM (inactive) | > 100 µM (inactive) | > 100 µM (inactive) | > 100 µM (inactive) | > 100 µM (inactive) | > 100 µM (inactive) | > 100 µM (inactive) | > 100 µM (inactive) | > 100 µM (inactive) | > 100 µM (inactive) | > 100 µM (inactive) | > 100 µM (inactive) | > 100 µM (inactive) | > 100 µM (inactive) | > 100 µM (inactive) | > 100 µM (inactive)
C/C(CN1C(=O)c2ccccc2C1=O)=N\NS(=O)(=O)c1cccc(C(=O)O)c1 | > 100 µM (inactive) | > 100 µM (inactive) | > 100 µM (inactive) | > 100 µM (inactive) | > 100 µM (inactive) | > 100 µM (inactive) | > 100 µM (inactive) | > 100 µM (inactive) | > 100 µM (inactive) | > 100 µM (inactive) | > 100 µM (inactive) | > 100 µM (inactive) | > 100 µM (inactive) | > 100 µM (inactive) | > 100 µM (inactive) | –
CC(C)c1cc(C(C)C)c(S(=O)(=O)NN)c(C(C)C)c1 | > 100 µM (inactive) | > 100 µM (inactive) | > 100 µM (inactive) | > 100 µM (inactive) | > 100 µM (inactive) | – | > 100 µM (inactive) | > 100 µM (inactive) | > 100 µM (inactive) | > 100 µM (inactive) | > 100 µM (inactive) | > 100 µM (inactive) | > 100 µM (inactive) | > 100 µM (inactive) | > 100 µM (inactive) | > 100 µM (inactive)
COC(=O)[C@@H]1CCCCC[C@H]2C(CO)=C(C)C(=O)C12 (some centres not stated) | > 100 µM (inactive) | > 100 µM (inactive) | > 100 µM (inactive) | > 100 µM (inactive) | > 100 µM (inactive) | > 100 µM (inactive) | > 100 µM (inactive) | > 100 µM (inactive) | > 100 µM (inactive) | > 100 µM (inactive) | > 100 µM (inactive) | > 100 µM (inactive) | > 100 µM (inactive) | > 100 µM (inactive) | > 100 µM (inactive) | > 100 µM (inactive)
Cc1cc(C)nc(NS(=O)(=O)c2ccc(NC(=O)c3ccc(Cl)c4c(Nc5ccc(S(=O)(=O)Nc6cc(C)on6)cc5)c5ccccc5nc34)cc2)n1 | 16.3 µM (inactive) | 17 µM (inactive) | 18.2 µM (inactive) | > 10 µM (inactive) | 16.7 µM (inactive) | 17.6 µM (inactive) | 18.1 µM (inactive) | 18.7 µM (inactive) | 17.9 µM (inactive) | 19.7 µM (inactive) | 18.4 µM (inactive) | 18.4 µM (inactive) | 20.1 µM (inactive) | 17.1 µM (inactive) | 18 µM (inactive) | 14.3 µM (inactive)
CCc1cccc(C(C)C)c1NC(=O)C(=O)CC(=O)c1c(C)[n+]([O-])c2ccccc2[n+]1[O-] | > 100 µM (inactive) | > 100 µM (inactive) | – | > 100 µM (inactive) | > 100 µM (inactive) | > 100 µM (inactive) | > 100 µM (inactive) | > 100 µM (inactive) | 30.1 µM (inactive) | > 100 µM (inactive) | – | > 100 µM (inactive) | > 100 µM (inactive) | > 100 µM (inactive) | > 100 µM (inactive) | > 100 µM (inactive)
O=C1C[C@@H]2[C@@H](C=CC23CC3)N1O | > 100 µM (inactive) | > 100 µM (inactive) | > 100 µM (inactive) | > 100 µM (inactive) | > 100 µM (inactive) | > 100 µM (inactive) | > 100 µM (inactive) | > 100 µM (inactive) | > 100 µM (inactive) | > 100 µM (inactive) | > 100 µM (inactive) | > 100 µM (inactive) | > 100 µM (inactive) | > 100 µM (inactive) | > 100 µM (inactive) | > 100 µM (inactive)
O=c1[nH]c(=O)n(C2CC(O)C(CO)O2)cc1OS(=O)(=O)C(F)(F)F (configuration not stated) | > 100 µM (inactive) | > 100 µM (inactive) | – | > 100 µM (inactive) | > 100 µM (inactive) | – | > 100 µM (inactive) | > 100 µM (inactive) | > 100 µM (inactive) | > 100 µM (inactive) | > 100 µM (inactive) | > 100 µM (inactive) | > 100 µM (inactive) | 38.9 µM (inactive) | > 100 µM (inactive) | > 100 µM (inactive)
CO[C@@]1(c2ccccc2)O[C@H]2OCCC2[C@H]1c1ccc(Cl)cc1 (some centres not stated) | 40.8 µM (inactive) | 32 µM (inactive) | 22 µM (inactive) | 28.8 µM (inactive) | 26.6 µM (inactive) | 25.4 µM (inactive) | 20 µM (inactive) | 51.6 µM (inactive) | 34 µM (inactive) | 32.7 µM (inactive) | 47 µM (inactive) | 63.8 µM (inactive) | 97.7 µM (inactive) | 34.2 µM (inactive) | 23.2 µM (inactive) | 17.7 µM (inactive)
CC(=O)O[C@@H]1C2C(=O)OC(=O)C2C2CCC[C@]23O[C@H]13 (some centres not stated) | > 100 µM (inactive) | > 100 µM (inactive) | > 100 µM (inactive) | > 100 µM (inactive) | > 100 µM (inactive) | > 100 µM (inactive) | > 100 µM (inactive) | > 100 µM (inactive) | > 100 µM (inactive) | > 100 µM (inactive) | > 100 µM (inactive) | > 100 µM (inactive) | > 100 µM (inactive) | > 100 µM (inactive) | > 100 µM (inactive) | > 100 µM (inactive)
